Test results reported in patent US8466162B2, “5-alkynyl-pyridines” (Boehringer Ingelheim International GmbH, priority 2011, dated 2013).
Values belong to the compound of their own block, whether it stands above or below them.

Tests used:
PI3Kalpha = biological target: T1, PI3Kalpha (Homo sapiens, UniProt P42336); assay: Inhibition of PI3Kalpha-induced PIP-2 phosphorylation (filter-binding assay, 33P-ATP); format: biochemical; details: PI3 Kinase alpha (p85alpha/His-p110alpha), 1 μM ATP; read-out: IC50 PI3Kα
T1 construct: His (N); made in house; host or cells: SF9 insect cells (baculovirus co-infection)
Experimental: Biological Methods Inhibition of PI3Kalpha-Induced PIP-2 Phosphorylation
See also J. A. Engelman, Nature Reviews Cancer, 2009, 9, 550-562; A. Carnero, Expert Opin. Investig. Drugs, 2009, 18, 1265-1277 and P. Liu et al., Nature Reviews Drug Discovery, 2009, 8, 627-64.
Method Type: Filter-Binding-Assay
Aliquoted in desired amounts and stored at −80° C. […] Assay Procedure
The substrate-containing lipid vesicles are dissolved to a concentration of 0.637 mg lipid blend/ml assay buffer (with BSA, freshly added) in 50 ml Falcon ->keep on ice, followed by ultrasonication (pulse of 15 sec followed by a pause of 10 sec, 4×). Compounds are serially diluted in assay buffer+6% DMSO and 10 μl of each dilution is added per well of a 96-well plate (compounds are tested in duplicates) and mixed with 30 μl of the lipid vesicles containing PDGFR-Peptide (0.5 μM final) and PI3K alpha (25 ng/well final). The mixture is then incubated for 20 minutes at room temperature.
Subsequently, 20 μl of assay buffer containing 3 μM cold ATP and 0.5 μCi/20 μl 33P-ATP are added. The plates are then incubated at room temperature for 120 minutes (shaking with 300 rpm).
The reaction mix is transferred onto filter plates using “filtermate harvester” from Packard: filter plates are rinsed with PBS, then the reaction mix is filtered onto the filter plate, washed 5 times with PBS and are allowed to dry for 30-60 minutes at 50° C. The plate bottom is sealed with Perkin Elmer white adhesive foil and 25 μl/well Microscint0 are added, the top is covered with transparent adhesive foil and the plate is measured with Wallac Trilux 1450 Microbeta Counter.
As positive control serve wells containing vehicle controls (1% DMSO in assay buffer), showing non-inhibited kinase activity (high values). Wells containing assay buffer instead of enzyme can serve as control for background activity (low values).
Calculate IC50 values using the Smiley program (based on GrapPad Prism)

MCF7 cells = assay: alamarBlue MCF7 cell assay (antiproliferative/cytotoxicity); format: cell-based; details: MCF7 human breast cancer cell line
Excerpt: (§1) The H460, MB453, U87, MCF7 and BT474 alamarBlue cell assays provide EC50 values indicative of the antiproliferative or cytotoxic effects of the compounds to respectively the H460 (human non small cell line cancer), MB-453 (breast cancer cell line), U87 (glioblastoma cell line), MCF7 (breast cancer cell line) and BT474 (breast cancer cell line). As known in the field, antiproliferative or cytotoxic effect against this cell lines would be expected to be indicative of activity in treating lung, breast and brain cancers. See R. Marone R et al. Biochim. Biophys. Acta. 2008 January; 1784(1):159-85. S. Yaguchi et al., J. Natl. Cancer Inst. 2006 Apr. 19; 98(8):545-56.
(§2) Method Type: Antiproliferative/Cytotoxicity
(§3) alamarBlue® is designed to provide a rapid and sensitive measure of cell proliferation and cytotoxicity in various human and animal cell lines. The assay is based on the reduction of alamarBlue in the reducing environment of living (metabolically active) cells. In the presence of added cytotoxic or antiproliferative compounds, the innate metabolic activity ceases.
(§4) AlamarBlue is soluble and stable in culture medium. Measurements are made fluorometrically by exciting at 530-560 nm and measuring emission at 590 nm. In reporting percent alamarBlue reduction by monitoring fluorescence, data are expressed as fluorescence emission intensity units as a function of time of incubation.
(§5) 3. Equipment • 96-well plates, flat bottom (Falcon, Cat. No.: 353072) • 96-well plates, U-shaped (Costar, Cat. No.: 3799) • CO2-Incubator • Microplate Reader, Spectramax Plus, Molecular Devices 4. Typical Procedure • Day 0: Seed 3000 BT-474 cells (IMDM/5% FCS, 1% NEAA, 1% Sodiumpyruvat) in 150 μl medium into a 96-well plate, flat bottom (include mediumblank). Incubate plates at 37° C. in a CO2 incubator overnight. • Day 1: Dilute compounds to a concentration 40 μM ->1:3 in medium, 10 dilution steps, in 96-well plates. • Add 50 μl per well of each dilution (total volume per well 200 μl; final conc. of cpds: 10 μM ->1:3). If required, test further dilutions. • All concentrations are tested in duplicates. • Controls: Cells w/o cpd. (+50 μl medium/DMSO). • Cells are incubated with compounds for 5-6 days. • Day 6 or 7: Add 25 μl of alamarBlue solution to each well and incubate for 8 hours at 37° C. Measure fluorescence by exciting at 530-560 nm and measuring emission at 590 nm 5. Evaluation • Subtract average value for medium blank from sample readings • Calculate EC50 using GraphPad Prism (Fifty)

U87 cells = assay: alamarBlue U87 cell assay (antiproliferative/cytotoxicity); format: cell-based; details: U-87MG human glioblastoma cells
Excerpt: as §1, §2, §3, §4, §5

BT474 cells = assay: alamarBlue BT474 cell assay (antiproliferative/cytotoxicity); format: cell-based; details: BT-474 human breast cancer cell line, 5-6 days incubation
Excerpt: as §1, §2, §3, §4, §5

H460 cells = assay: alamarBlue H460 cell assay (antiproliferative/cytotoxicity); format: cell-based; details: NCI-H460; H460 human lung carcinoma cells
Excerpt: as §1, §2, §3, §4, §5

MB453 cells = assay: alamarBlue MB453 cell assay (antiproliferative/cytotoxicity); format: cell-based; details: Homo sapiens; MDA MB 453 breast cancer cell line
Excerpt: as §1, §2, §3, §4, §5

T1 sequence (P27986 whole entry): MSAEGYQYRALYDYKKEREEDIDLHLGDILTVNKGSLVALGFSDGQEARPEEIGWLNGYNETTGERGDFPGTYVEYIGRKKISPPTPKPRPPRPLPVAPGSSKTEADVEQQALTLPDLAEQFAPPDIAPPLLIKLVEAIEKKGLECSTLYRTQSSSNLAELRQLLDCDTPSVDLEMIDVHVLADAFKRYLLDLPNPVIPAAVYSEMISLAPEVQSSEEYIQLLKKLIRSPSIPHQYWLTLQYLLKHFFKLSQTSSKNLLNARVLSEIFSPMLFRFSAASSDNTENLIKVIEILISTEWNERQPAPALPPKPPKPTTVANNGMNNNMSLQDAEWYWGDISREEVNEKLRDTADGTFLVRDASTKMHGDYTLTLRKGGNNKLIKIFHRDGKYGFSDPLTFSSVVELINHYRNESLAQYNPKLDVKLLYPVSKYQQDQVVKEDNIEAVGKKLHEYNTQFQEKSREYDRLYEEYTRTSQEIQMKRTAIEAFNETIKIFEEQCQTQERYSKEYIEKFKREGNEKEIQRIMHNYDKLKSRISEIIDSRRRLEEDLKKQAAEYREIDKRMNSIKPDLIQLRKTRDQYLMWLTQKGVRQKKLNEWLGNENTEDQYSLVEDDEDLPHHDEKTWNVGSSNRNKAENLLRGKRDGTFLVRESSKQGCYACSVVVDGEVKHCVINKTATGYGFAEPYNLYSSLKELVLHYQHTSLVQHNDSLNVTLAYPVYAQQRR
T1 sequence (P42336 whole entry): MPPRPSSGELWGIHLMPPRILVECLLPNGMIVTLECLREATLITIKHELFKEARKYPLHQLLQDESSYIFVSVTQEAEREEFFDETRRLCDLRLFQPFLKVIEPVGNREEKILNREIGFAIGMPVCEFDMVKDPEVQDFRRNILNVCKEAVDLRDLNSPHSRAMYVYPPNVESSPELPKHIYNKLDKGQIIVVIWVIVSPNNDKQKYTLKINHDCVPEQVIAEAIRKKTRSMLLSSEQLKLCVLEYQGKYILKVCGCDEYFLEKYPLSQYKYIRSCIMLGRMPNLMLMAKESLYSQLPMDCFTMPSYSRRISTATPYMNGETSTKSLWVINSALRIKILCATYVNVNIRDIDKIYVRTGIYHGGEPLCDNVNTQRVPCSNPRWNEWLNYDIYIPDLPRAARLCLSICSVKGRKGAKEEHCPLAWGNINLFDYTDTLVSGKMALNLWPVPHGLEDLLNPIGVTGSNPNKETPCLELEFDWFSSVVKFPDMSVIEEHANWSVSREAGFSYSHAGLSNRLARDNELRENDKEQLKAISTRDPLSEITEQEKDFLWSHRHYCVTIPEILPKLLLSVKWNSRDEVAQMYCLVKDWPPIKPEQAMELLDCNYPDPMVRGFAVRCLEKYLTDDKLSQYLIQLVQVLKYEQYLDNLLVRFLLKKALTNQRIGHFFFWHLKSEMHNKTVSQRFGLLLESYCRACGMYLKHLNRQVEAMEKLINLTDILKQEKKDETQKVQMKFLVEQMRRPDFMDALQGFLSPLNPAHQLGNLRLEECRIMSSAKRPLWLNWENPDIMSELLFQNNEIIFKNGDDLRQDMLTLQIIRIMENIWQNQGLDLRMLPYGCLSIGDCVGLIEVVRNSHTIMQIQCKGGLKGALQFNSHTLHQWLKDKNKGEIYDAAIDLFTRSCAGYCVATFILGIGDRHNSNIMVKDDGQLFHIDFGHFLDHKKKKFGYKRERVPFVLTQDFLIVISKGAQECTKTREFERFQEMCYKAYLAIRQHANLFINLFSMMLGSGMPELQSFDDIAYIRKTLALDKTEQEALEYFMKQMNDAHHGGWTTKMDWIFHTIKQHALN

SMILES: CCc1ncnc(-c2ccc(OC)c(OC)c2)c1C#Cc1cnc(C)c(NS(C)(=O)=O)c1 [Example 1, N-{5-[4-(3,4-Dimethoxy-phenyl)-6-ethyl-pyrimidin-5-ylethynyl]-2-methyl-pyridin-3-yl}-methanesulfonamide]
- IC50 (PI3Kalpha): 1 nM
- EC50 (MCF7 cells): 39 nM
- EC50 (U87 cells): 300 nM
- EC50 (BT474 cells): 94 nM
- EC50 (H460 cells): 490 nM
- EC50 (MB453 cells): 79 nM

SMILES: CCc1ncnc(-c2cccc(CN(C)C)c2)c1C#Cc1cnc(C)c(NS(C)(=O)=O)c1 [Example 2, N-{5-[4-(3-Dimethylaminomethyl-phenyl)-6-ethyl-pyrimidin-5-ylethynyl]-2-methyl-pyridin-3-yl}-methanesulfonamide]
- IC50 (PI3Kalpha): 7 nM
- EC50 (MCF7 cells): 439 nM
- EC50 (U87 cells): 1230 nM
- EC50 (BT474 cells): 588 nM
- EC50 (H460 cells): 2820 nM
- EC50 (MB453 cells): 394 nM

SMILES: CCc1ncnc(-c2ccc(C)nc2)c1C#Cc1cnc(C)c(NS(C)(=O)=O)c1 [Example 3, N-{5-[4-Ethyl-6-(6-methyl-pyridin-3-yl)-pyrimidin-5-ylethynyl]-2-methyl-pyridin-3-yl}-methanesulfonamide]
- IC50 (PI3Kalpha): 1 nM
- EC50 (MCF7 cells): 23 nM
- EC50 (U87 cells): 410 nM
- EC50 (BT474 cells): 177 nM
- EC50 (H460 cells): 368 nM
- EC50 (MB453 cells): 112 nM

SMILES: CCc1ncnc(-c2ccnc(C)c2)c1C#Cc1cnc(C)c(NS(C)(=O)=O)c1 [Example 4, N-{5-[4-Ethyl-6-(2-methyl-pyridin-4-yl)-pyrimidin-5-ylethynyl]-2-methyl-pyridin-3-yl}-methanesulfonamide]
- IC50 (PI3Kalpha): 2 nM
- EC50 (MCF7 cells): 27 nM
- EC50 (U87 cells): 383 nM
- EC50 (BT474 cells): 171 nM
- EC50 (H460 cells): 329 nM
- EC50 (MB453 cells): 75 nM

SMILES: CCc1cc(-c2ncnc(CC)c2C#Cc2cnc(C)c(NS(C)(=O)=O)c2)ccn1 [Example 5, N-{5-[4-Ethyl-6-(2-ethyl-pyridin-4-yl)-pyrimidin-5-ylethynyl]-2-methyl-pyridin-3-yl}-methanesulfonamide]
- IC50 (PI3Kalpha): 0.63 nM
- EC50 (MCF7 cells): 34 nM
- EC50 (U87 cells): 220 nM
- EC50 (BT474 cells): 117 nM
- EC50 (H460 cells): 159 nM
- EC50 (MB453 cells): 54 nM

SMILES: CCc1ncnc(-c2cc(C)nc(C)c2)c1C#Cc1cnc(C)c(NS(C)(=O)=O)c1 [Example 6, N-{5-[4-(2,6-Dimethyl-pyridin-4-yl)-6-ethyl-pyrimidin-5-ylethynyl]-2-methyl-pyridin-3-yl}-methanesulfonamide]
- IC50 (PI3Kalpha): 1 nM
- EC50 (MCF7 cells): 28 nM
- EC50 (U87 cells): 243 nM
- EC50 (BT474 cells): 104 nM
- EC50 (H460 cells): 169 nM
- EC50 (MB453 cells): 49 nM

SMILES: CCc1ncnc(-c2cccc(C(F)(F)F)c2OC)c1C#Cc1cnc(C)c(NS(C)(=O)=O)c1 [Example 7, N-{5-[4-Ethyl-6-(2-methoxy-3-trifluoromethyl-phenyl)-pyrimidin-5-ylethynyl]-2-methyl-pyridin-3-yl}-methanesulfonamide]
- IC50 (PI3Kalpha): 2 nM
- EC50 (MCF7 cells): 223 nM
- EC50 (U87 cells): 475 nM
- EC50 (BT474 cells): 543 nM
- EC50 (H460 cells): 358 nM
- EC50 (MB453 cells): 381 nM

SMILES: CCc1ncnc(-c2ccc(OC)c(F)c2)c1C#Cc1cnc(C)c(NS(C)(=O)=O)c1 [Example 8, N-{5-[4-Ethyl-6-(3-fluoro-4-methoxy-phenyl)-pyrimidin-5-ylethynyl]-2-methyl-pyridin-3-yl}-methanesulfonamide]
- IC50 (PI3Kalpha): 1 nM
- EC50 (MCF7 cells): 99 nM
- EC50 (U87 cells): 910 nM
- EC50 (BT474 cells): 279 nM
- EC50 (H460 cells): 241 nM
- EC50 (MB453 cells): 184 nM

SMILES: CCc1ncnc(-c2ccc(C)nc2)c1C#Cc1cnc(C)c(NS(=O)(=O)c2ccc(F)cc2F)c1 [Example 9, N-{5-[4-Ethyl-6-(6-methyl-pyridin-3-yl)-pyrimidin-5-ylethynyl]-2-methyl-pyridin-3-yl}-2,4-difluoro-benzenesulfonamide]
- IC50 (PI3Kalpha): 0.54 nM
- EC50 (MCF7 cells): 7 nM
- EC50 (U87 cells): 248 nM
- EC50 (BT474 cells): 24 nM
- EC50 (H460 cells): 49 nM
- EC50 (MB453 cells): 36 nM

Now from value to compound, other results behind:

- IC50 (PI3Kalpha): 0.56 nM
SMILES: CCc1ncnc(-c2ccnc(C)c2)c1C#Cc1cnc(C)c(NS(=O)(=O)c2ccc(F)cc2F)c1 [Example 10, N-{5-[4-Ethyl-6-(2-methyl-pyridin-4-yl)-pyrimidin-5-ylethynyl]-2-methyl-pyridin-3-yl}-2,4-difluoro-benzenesulfonamide]
- EC50 (MCF7 cells): 29 nM
- EC50 (U87 cells): 326 nM
- EC50 (BT474 cells): 75 nM
- EC50 (H460 cells): 92 nM
- EC50 (MB453 cells): 69 nM

- IC50 (PI3Kalpha): 1 nM
SMILES: CCc1ncnc(-c2ccnc(C)c2)c1C#Cc1cnc(C)c(NS(=O)(=O)c2ccccc2Cl)c1 [Example 11, 2-Chloro-N-{5-[4-ethyl-6-(2-methyl-pyridin-4-yl)-pyrimidin-5-ylethynyl]-2-methyl-pyridin-3-yl}-benzenesulfonamide]
- EC50 (MCF7 cells): 74 nM
- EC50 (U87 cells): 686 nM
- EC50 (H460 cells): 103 nM
- EC50 (MB453 cells): 190 nM

- IC50 (PI3Kalpha): 2 nM
SMILES: CCc1ncnc(-c2ccnc(C)c2)c1C#Cc1cnc(C)c(NS(=O)(=O)c2ccc(C#N)cc2)c1 [Example 84, 4-Cyano-N-{5-[4-ethyl-6-(2-methyl-pyridin-4-yl)-pyrimidin-5-ylethynyl]-2-methyl-pyridin-3-yl}-benzenesulfonamide]
- EC50 (MCF7 cells): 85 nM
- EC50 (U87 cells): 778 nM
- EC50 (H460 cells): 769 nM
- EC50 (MB453 cells): 190 nM

- IC50 (PI3Kalpha): 0.64 nM
SMILES: CCc1ncnc(-c2ccc(CN)nc2)c1C#Cc1cnc(C)c(NS(=O)(=O)c2ccc(F)cc2F)c1 [Example 104, N-{5-[4-(6-Aminomethyl-pyridin-3-yl)-6-ethyl-pyrimidin-5-ylethynyl]-2-methyl-pyridin-3-yl}-2,4-difluoro-benzenesulfonamide]
- EC50 (U87 cells): 605 nM
- EC50 (BT474 cells): 127 nM
- EC50 (H460 cells): 955 nM
- EC50 (MB453 cells): 119 nM

- IC50 (PI3Kalpha): 0.93 nM
SMILES: CCc1ncnc(-c2ccc(CN)nc2)c1C#Cc1cnc(C)c(NS(=O)(=O)c2ccccc2C(F)(F)F)c1 [Example 105, N-{5-[4-(6-Aminomethyl-pyridin-3-yl)-6-ethyl-pyrimidin-5-ylethynyl]-2-methyl-pyridin-3-yl}-2-trifluoromethyl-benzenesulfonamide]
- EC50 (U87 cells): 406 nM
- EC50 (BT474 cells): 1210 nM
- EC50 (H460 cells): 958 nM
- EC50 (MB453 cells): 152 nM

- IC50 (PI3Kalpha): 1 nM
SMILES: CCc1ncnc(-c2ccc(CN)nc2)c1C#Cc1cnc(C)c(NS(=O)(=O)c2ccccc2)c1 [Example 106, N-{5-[4-(6-Aminomethyl-pyridin-3-yl)-6-ethyl-pyrimidin-5-ylethynyl]-2-methyl-pyridin-3-yl}-benzenesulfonamide]
- EC50 (U87 cells): 213 nM
- EC50 (BT474 cells): 131 nM
- EC50 (H460 cells): 393 nM
- EC50 (MB453 cells): 118 nM
